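How tested: cells in 96-well plates exposed to compound for 48 hours at five concentrations. GI50: concentration for 50% inhibition of growth. At the TGI there is no net growth.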
What was measured:
Assay in all cases: inhibition of tumour cell growth, NCI panel, 48 h
[1] = system: OVCAR-4 ovarian
[2] = system: SK-MEL-5 melanoma
[3] = system: SR leukemia
[4] = system: NCI-H460 lung
[5] = system: TK-10 renal
[6] = system: UACC-62 melanoma
[7] = system: SF-268 CNS
[8] = system: CCRF-CEM leukemia
[9] = system: HCT-15 colon
[10] = system: MALME-3M melanoma
[11] = system: DU-145 prostate
[12] = system: K-562 leukemia
[13] = system: SNB-19 CNS
[14] = system: UACC-257 melanoma
[15] = system: M14 melanoma
[16] = system: HCC-2998 colon
[17] = system: ACHN renal
[18] = system: UO-31 renal
[19] = system: A549 NSCLC
[20] = system: 786-0 renal
[21] = system: SF-295 CNS
[22] = system: NCI-H226 lung
[23] = system: RXF 393 renal
[24] = system: A498 renal
[25] = system: COLO 205 colon
[26] = system: NCI-H23 lung
[27] = system: MDA-MB-231 breast
[28] = system: KM12 colon
[29] = system: NCI-H522 lung
[30] = system: T-47D breast
[31] = system: MDA-MB-435
[32] = system: HT29 colon
[33] = system: MOLT-4 leukemia
[34] = system: SNB-75 CNS
[35] = system: SN12C renal
[36] = system: OVCAR-8 ovarian
[37] = system: SK-MEL-2 melanoma
[38] = system: SK-MEL-28 melanoma
[39] = system: RPMI-8226 leukemia
[40] = system: OVCAR-5 ovarian
[41] = system: MCF7 breast
[42] = system: HS 578T breast
[43] = system: PC-3 prostate
[44] = system: U251 CNS
[45] = system: SK-OV-3 ovarian
[46] = system: NCI/ADR-RES ovarian
[47] = system: HOP-62 NSCLC
[48] = system: BT-549 breast
[49] = system: OVCAR-3 ovarian
[50] = system: LOX IMVI melanoma
[51] = system: HOP-92 NSCLC
[52] = system: CAKI-1 renal
[53] = system: HL-60(TB) leukemia
[54] = system: SW-620 colon
[55] = system: SF-539 CNS
[56] = system: HCT-116 colon
[57] = system: IGROV1 ovarian

Structure (SMILES): Nc1c(C(=O)c2cccc(-c3ccncc3)c2)cnn1-c1ccc(F)cc1
- GI50 [1]: > 25 µM
- TGI [1]: > 25 µM
- GI50 [2]: 5.69 µM
- TGI [2]: > 25 µM
- GI50 [3]: > 25 µM
- TGI [3]: > 25 µM
- GI50 [4]: > 25 µM
- TGI [4]: > 25 µM
- GI50 [5]: > 25 µM
- TGI [5]: > 25 µM
- GI50 [6]: > 25 µM
- TGI [6]: > 25 µM
- GI50 [7]: > 25 µM
- TGI [7]: > 25 µM
- GI50 [8]: > 25 µM
- TGI [8]: > 25 µM
- GI50 [9]: > 25 µM
- TGI [9]: > 25 µM
- GI50 [10]: > 25 µM
- TGI [10]: > 25 µM
- GI50 [11]: > 25 µM
- TGI [11]: > 25 µM
- GI50 [12]: > 25 µM
- TGI [12]: > 25 µM
- GI50 [13]: > 25 µM
- TGI [13]: > 25 µM
- GI50 [14]: > 25 µM
- TGI [14]: > 25 µM
- GI50 [15]: > 25 µM
- TGI [15]: > 25 µM
- GI50 [16]: > 25 µM
- TGI [16]: > 25 µM
- GI50 [17]: > 25 µM
- TGI [17]: > 25 µM
- GI50 [18]: > 25 µM
- TGI [18]: > 25 µM
- GI50 [19]: > 25 µM
- TGI [19]: > 25 µM
- GI50 [20]: > 25 µM
- TGI [20]: > 25 µM
- GI50 [21]: > 25 µM
- TGI [21]: > 25 µM
- GI50 [22]: > 25 µM
- TGI [22]: > 25 µM
- GI50 [23]: > 25 µM
- TGI [23]: > 25 µM
- GI50 [24]: > 25 µM
- TGI [24]: > 25 µM
- GI50 [25]: > 25 µM
- TGI [25]: > 25 µM
- GI50 [26]: > 25 µM
- TGI [26]: > 25 µM
- GI50 [27]: > 25 µM
- TGI [27]: > 25 µM
- GI50 [28]: > 25 µM
- TGI [28]: > 25 µM
- GI50 [29]: 15.4 µM
- TGI [29]: > 25 µM
- GI50 [30]: 9.94 µM
- TGI [30]: > 25 µM
- GI50 [31]: > 25 µM
- TGI [31]: > 25 µM
- GI50 [32]: > 25 µM
- TGI [32]: > 25 µM
- GI50 [33]: > 25 µM
- TGI [33]: > 25 µM
- GI50 [34]: > 25 µM
- TGI [34]: > 25 µM
- GI50 [35]: > 25 µM
- TGI [35]: > 25 µM
- GI50 [36]: > 25 µM
- TGI [36]: > 25 µM
- GI50 [37]: > 25 µM
- TGI [37]: > 25 µM
- GI50 [38]: > 25 µM
- TGI [38]: > 25 µM
- GI50 [39]: > 15.2 µM
- TGI [39]: > 25 µM
- GI50 [40]: > 25 µM
- TGI [40]: > 25 µM
- GI50 [41]: > 25 µM
- TGI [41]: > 25 µM
- GI50 [42]: > 25 µM
- TGI [42]: > 25 µM
- GI50 [43]: > 25 µM
- TGI [43]: > 25 µM
- GI50 [44]: > 25 µM
- TGI [44]: > 25 µM
- GI50 [45]: > 25 µM
- TGI [45]: > 25 µM
- GI50 [46]: > 25 µM
- TGI [46]: > 25 µM
- GI50 [47]: > 23.3 µM
- TGI [47]: > 25 µM
- GI50 [48]: > 25 µM
- TGI [48]: > 25 µM
- GI50 [49]: > 25 µM
- TGI [49]: > 25 µM
- GI50 [50]: > 25 µM
- TGI [50]: > 25 µM
- GI50 [51]: > 25 µM
- TGI [51]: > 25 µM
- GI50 [52]: > 25 µM
- TGI [52]: > 25 µM
- GI50 [53]: > 5.67 µM
- TGI [53]: > 25 µM
- GI50 [54]: > 25 µM
- TGI [54]: > 25 µM
- GI50 [55]: > 25 µM
- TGI [55]: > 25 µM
- GI50 [56]: > 25 µM
- TGI [56]: > 25 µM
- GI50 [57]: > 25 µM
- TGI [57]: > 25 µM
